Assay results: US11413278B2, “Compounds and methods for promoting stress resistance” (priority 2015, dated 2022)
Like-named read-outs stand apart in the source and are kept apart here.

What was measured:
[1] = tested on: NRF2; experiment: qPCR analysis of NRF2-regulated genes; assay type: cell-based, human; conditions: for fold induction at 10 µM: Homo sapiens
In short: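 WI-38 cells treated with compound at 10 μM for 24 hrs, then processed by Cells-to-Ct for RNA isolation, RT and qPCR of NRF2-regulated genes (HMOX1, NQO1, GCLC, GSTM1). Expression normalized to B2M, PPIA and GAPDH; siRNA knockdown of FOXO3 or NRF2 (10 nM) preceded treatment in some runs.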

[2] = tested on: FOXO3; experiment: FOXO3 siRNA knockdown: dependency for H2O2-resistance; assay type: cell-based, human
Protocol: For qPCR analysis, WI-38 cells were treated with small molecules (at 10 μM) (biological quadruplicates) for 24 hrs and processed for RNA isolation and reverse transcription (RT) with the Cells-to-Ct Kit (Life Technologies), following manufacturer's instructions. RT products were diluted with H2O and used for qPCR analysis on an ABI 7300 system (Life Technologies) (technical triplicates). Relative expression levels of target genes were normalized to the genes B2M, PPIA and GAPDH. To knock down the expression of FOXO3 or NRF2, WI-38 cells were transfected, using the RNAiMAX reagents (Life Technologies), with siRNA oligos (at 10 nM final concentration, 10 ml culture medium) for FOXO3 (Life Technologies) or NRF2 (Integrated DNA Technologies) on 10-cm petri dishes for 36 hrs, and then detached and aliquoted onto 96-well (for qPCR analysis) or 384-well plates (for H2O2-stress treatment). ˜24 hrs later, small molecules were introduced and incubated with cells for 24 hrs. Cells were then either processed with the Cells-to-Ct Kit to prepare RT products for qPCR analysis or subjected to H2O2 (700 μM) for 3 hrs and assayed for viability. The knockdown efficiency of FOXO3 or NRF2 was checked at 36 hrs post-transfection and at the end as well. […]
Applicants used siRNA to knock down FOXO3 expression by ˜70% in an attempt to identify whether the activation of these genes depends on activity of FOXO3 and/or NRF2. […] We used siRNA to knock down FOXO3 expression by ˜60% to 70% (FIG. 3; see data in Table 6). […] (Given the caveat that FOXO3 was not fully knocked down, partial dependency was scored when the H2O2-resistance capacity was reduced by at least 25% but less than 50% upon siRNA knockdown). At least for Gr-7A and Gr-7C, which are structurally related, the observed FOXO3-dependency for H2O2-resistance is consistent with their strong effects to induce FOXO3 target genes (Tables 1a-1f, Table 6, & Table 15), including SOD2 and GADD45A.

[3] = tested on: WI-38 cells; experiment: Long-term effects on cell viability (5 days, ATP; morphology, PI imaging); assay type: cell-based; conditions: for viability at 10 µM: Homo sapiens, WI-38, 120 h, read-out: ATP luminescence by day-5 normalized; for O = Potential toxicity / Q = Potential toxicity: human, 5 days;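 as to Luminescence signal for ATP measurement, day-2 Average: compounds at 10 µM with ATP read daily over 5 days of treatment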;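 as to Luminescence signal for ATP measurement, day-3 Average: compounds at 10 µM with ATP read daily over 5 days of treatment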;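 as to Luminescence signal for ATP measurement, day-4 Average: compounds at 10 µM with ATP read daily over 5 days of treatment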;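 as to Luminescence signal for ATP measurement, day-5 Average: compounds at 10 µM with ATP read daily over 5 days of treatment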
Protocol: In addition, cell death was scored by PI-imaging on day 2 and day 5 of treatment.
Applicants introduced molecules (at 10 uM final concentration) to WI-38 fibroblasts and then assayed cell viability (through ATP measurement) everyday, during a course of 5 days of continuous treatment. […] Applicants also examined the morphology and scored cell death (propidium iodide staining) for cells treated with the above molecules. Of these 14 molecules, some appeared to cause cell toxicity. […] Despite the observed long-term toxicity, these molecules are still interesting as they may act as anti-tumor agents in vivo, should they have more pronounced cytotoxicity on highly proliferative tumor cells. When cells were incubated with these molecules for ˜24 hrs and then subject to hydrogen peroxide for 3 hrs, these molecules are all protective. […] Some of these small molecules may be toxic by themselves under certain conditions, but by inducing protective mechanisms, they may trigger “hormesis” and therefore protect cells from oxidative stress.

[4] = 24 h, Assay 12(o), at 10 uM, qPCR, read-out: Induction of NRF2-regulated genes: HMOX1 normalized fold-change
[5] = rounded fold change, WI-38 cells, 10 μM, 24 hrs (RP11 for Gr-1D, RP29 for Gr-4D), read-out: Summary of effects on NRF2-regulated genes: HMOX1
[6] = 10 μM, 24 hrs, WI-38 cells, qPCR, normalized to B2M, n = 4, read-out: HMOX1 expression, normalized fold change (NRF2-regulated gene)
[7] = WI-38 cells, 10 μM, 24 hrs, n=4, qPCR normalized by B2M, read-out: GCLC Normalized fold change
[8] = WI-38 cells, 10 μM, 24 hrs, n=4, qPCR normalized by B2M, read-out: GSTM1 Normalized fold change
[9] = WI-38 cells, 10 μM, 24 hrs, n=4, qPCR normalized by B2M, read-out: HMOX1 Normalized fold change
[10] = WI-38 cells, 10 μM, 24 hrs, n=4, qPCR normalized by B2M, read-out: NQO1 Normalized fold change
[11] = Batch 1, 10 μM, day-1, n = 6, day-0 luminescence = 320956 ± 24708
[12] = Batch 1, 10 μM, day-2, n = 6, day-0 luminescence = 320956 ± 24708
[13] = Batch 1, 10 μM, day-3, n = 6, day-0 luminescence = 320956 ± 24708
[14] = Batch 1, 10 μM, day-4, n = 6, day-0 luminescence = 320956 ± 24708
[15] = Batch 1, 10 μM, day-5, n = 6, day-0 luminescence = 320956 ± 24708
[16] = Batch 1, 10 μM, day-5, DMSO ctrl = 100.0%

Compound | F = Potential NRF2 Activation ([1]; 2-point score) | fold induction at 10 µM [1, 4] | fold induction at 10 µM [1, 5] | fold induction at 10 µM [1, 6] | fold induction at 10 µM [1, 7] | fold induction at 10 µM [1, 8] | fold induction at 10 µM [1, 9] | fold induction at 10 µM [1, 10] | F = Potential NRF2 Activation ([1]; summary score) | I = FOXO3-dependency for H2O2-resistance ([2]; score) | I = FOXO3-dependency for H2O2-resistance ([2]; summary score) | Luminescence signal for ATP measurement, day-1 Average [3, 11] | Luminescence signal for ATP measurement, day-2 Average [3, 12] | Luminescence signal for ATP measurement, day-3 Average [3, 13] | Luminescence signal for ATP measurement, day-4 Average [3, 14] | Luminescence signal for ATP measurement, day-5 Average [3, 15] | viability at 10 µM [3, 16] [%] | O = Potential toxicity ([3]; 10 μM) | Q = Potential toxicity ([3]; 10 μM) | other results
CNC(=O)/C(C#N)=C/c1c(Oc2ccc(C(C)(C)C)cc2)nc2ccccn2c1=O [Gr-5D] | 2 | 2.49 | 2.49 | 2.49 | 0.886 | 1.17 | 2.49 | 1.78 | 2 | 0 | 0 | 498641 | 763806 | 920681 | 1052285 | 1110868 | 108 | 0 | 0 | TXNIP expression, normalized fold change (printed in the column of NRF2-regulated genes) ([1]; 10 μM, 24 hrs, WI-38 cells, qPCR, normalized to B2M, n = 4): TXNIP 0.67, fold; Induction of NRF2-regulated genes: TXNIP normalized fold-change ([1]; Assay 12(o), at 10 uM, qPCR): TXNIP 0.67, fold-change; Potential NRF2 Activation (>=2 target genes induced, by >=1.5-fold) ([1]; Assay 13(p)): YES; fold induction at 10 µM ([1]; 24 h, Assay 12(o), at 10 uM, qPCR, read-out: Induction of NRF2-regulated genes: NQO1 normalized fold-change): 1.78; fold induction at 10 µM ([1]; rounded fold change, WI-38 cells, 10 μM, 24 hrs (RP29 for Gr-4D), read-out: Summary of effects on NRF2-regulated genes: NQO1): 1.78; fold induction at 10 µM ([1]; 10 μM, 24 hrs, WI-38, read-out: Expression of at least two NRF2 target genes): > 1.5; fold induction at 10 µM ([1]; 10 μM, 24 hrs, WI-38 cells, qPCR, normalized to B2M, n = 4, read-out: NQO1 expression, normalized fold change (NRF2-regulated gene)): 1.78; Summary of effects on NRF2-regulated genes: TXNIP ([1]; fold change, WI-38 cells, 10 μM, 24 hrs): 0.67,
COc1ccc(/C=C2\SC(=N)N(c3nccs3)C2=O)cc1 [O21] | 0 | 3.02 | 3.02 | 3.02 | 0.512 | 1.25 | 3.02 | 0.836 | 0 | 0 | 0 | 460366 | 542268 | 557236 | 677875 | 550651 | 53.6 | 1 | 1 | fold induction at 10 µM ([1]; 24 h, Assay 12(o), at 10 uM, qPCR, read-out: Induction of NRF2-regulated genes: GCLC normalized fold-change): 0.51; fold induction at 10 µM ([1]; 24 h, Assay 12(o), at 10 uM, qPCR, read-out: Induction of NRF2-regulated genes: GSTM1 normalized fold-change): 1.25; fold induction at 10 µM ([1]; rounded fold change, WI-38 cells, 10 μM, 24 hrs (RP29 for Gr-4D), read-out: Summary of effects on NRF2-regulated genes: GSTM1): 1.25; fold induction at 10 µM ([1]; rounded fold change, WI-38 cells, 10 μM, 24 hrs, read-out: Summary of effects on NRF2-regulated genes: GCLC): 0.51; fold induction at 10 µM ([1]; 10 μM, 24 hrs, WI-38 cells, qPCR, normalized to B2M, n = 4, read-out: GCLC expression, normalized fold change (NRF2-regulated gene)): 0.51; fold induction at 10 µM ([1]; 10 μM, 24 hrs, WI-38 cells, qPCR, normalized to B2M, n = 4, read-out: GSTM1 expression, normalized fold change (NRF2-regulated gene)): 1.25; FOXO3-dependency for H2O2-resistance, at 10 uM (experiment 3) - with & without H2O2 ([2]; 10 uM, experiment 3, with & without H2O2): YES; FOXO3-dependency for H2O2-resistance (experiment 3) ([2]; 10 uM, with & without H2O2, FOXO3 knockdown in WI-38 cells, YES = resistance reduced by at least 50%, partial = 25% to 50%): YES
Oc1ccccc1-c1noc(-c2ccccc2O)n1 [O27] | 0 |  |  |  |  |  |  |  | 0 | 0 | 0 |  |  |  |  |  |  | 0 | 1 | Luminescence signal for ATP measurement, day-1 Average [3]: 431303; Luminescence signal for ATP measurement, day-2 Average [3]: 437195; Luminescence signal for ATP measurement, day-3 Average [3]: 517210; Luminescence signal for ATP measurement, day-4 Average [3]: 634360; Luminescence signal for ATP measurement, day-5 Average [3]: 587798; viability at 10 µM [3]: 57.2%
